Consider eight substances from paper PMC11117660, “Novel Angiotensin-Converting Enzyme-Inhibitory Peptides Obtained from Trichiurus lepturus: Preparation, Identification and Potential Antihypertensive Mechanism” (Biomolecules, 2024).

Like-named read-outs stand apart in the source and are kept apart here. Where no end group is shown, it is not given here.

One may read the IC50 as the concentration needed to halve the response being measured.

The target in assay [1] is T1, Angiotensin I-converting enzyme (ACE) (Oryctolagus cuniculus, UniProt P12822).
T1 construct: sourced from rabbit lungs; purchased Sigma-Aldrich (St. Louis, MO, USA); host or cells: rabbit lung tissue
T1 sequence (P12822 34-1310): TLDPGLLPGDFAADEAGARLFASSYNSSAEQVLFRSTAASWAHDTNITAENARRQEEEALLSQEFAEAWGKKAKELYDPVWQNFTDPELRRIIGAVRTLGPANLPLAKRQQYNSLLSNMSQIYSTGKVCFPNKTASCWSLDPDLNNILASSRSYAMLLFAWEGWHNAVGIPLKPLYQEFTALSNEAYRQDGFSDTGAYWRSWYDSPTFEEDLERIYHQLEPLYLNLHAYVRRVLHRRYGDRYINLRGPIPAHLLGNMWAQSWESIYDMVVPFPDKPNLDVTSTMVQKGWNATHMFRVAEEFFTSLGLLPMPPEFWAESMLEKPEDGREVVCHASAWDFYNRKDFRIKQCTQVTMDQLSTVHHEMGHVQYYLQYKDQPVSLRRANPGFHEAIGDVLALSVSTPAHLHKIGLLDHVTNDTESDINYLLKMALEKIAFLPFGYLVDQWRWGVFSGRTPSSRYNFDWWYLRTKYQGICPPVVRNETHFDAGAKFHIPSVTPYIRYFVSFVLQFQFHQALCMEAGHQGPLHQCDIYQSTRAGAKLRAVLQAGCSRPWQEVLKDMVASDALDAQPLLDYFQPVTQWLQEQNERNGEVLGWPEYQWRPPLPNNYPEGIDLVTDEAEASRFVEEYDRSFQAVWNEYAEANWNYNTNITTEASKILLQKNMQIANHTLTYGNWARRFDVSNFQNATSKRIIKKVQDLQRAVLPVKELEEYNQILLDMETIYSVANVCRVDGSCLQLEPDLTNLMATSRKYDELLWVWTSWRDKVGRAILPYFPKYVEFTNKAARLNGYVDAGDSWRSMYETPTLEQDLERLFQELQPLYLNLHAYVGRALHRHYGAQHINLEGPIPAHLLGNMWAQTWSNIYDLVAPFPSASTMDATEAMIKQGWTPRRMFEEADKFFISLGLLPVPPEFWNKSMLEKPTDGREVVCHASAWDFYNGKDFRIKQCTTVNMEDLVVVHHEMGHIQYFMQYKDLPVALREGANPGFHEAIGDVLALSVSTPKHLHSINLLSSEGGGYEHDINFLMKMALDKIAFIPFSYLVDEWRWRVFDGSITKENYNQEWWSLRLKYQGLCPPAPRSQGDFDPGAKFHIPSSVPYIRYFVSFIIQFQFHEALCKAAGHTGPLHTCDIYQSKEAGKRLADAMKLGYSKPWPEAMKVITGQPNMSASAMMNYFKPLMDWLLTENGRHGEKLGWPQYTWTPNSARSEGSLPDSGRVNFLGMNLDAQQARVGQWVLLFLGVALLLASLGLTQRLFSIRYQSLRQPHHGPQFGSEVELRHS
In words: ACE-inhibitory activity (FAPGG substrate, absorbance at 340 nm). Format: biochemical, rabbit. Conditions: synthetic peptides, Figure 7; experiments in triplicate. The protocol:
ACE-inhibitory activity was assessed by following the experimental procedure reported by Dou et al., with slight modifications. […] The negative control group was substituted with 100 μL of borate-buffered HEPES. The initial absorbance values of a1 and b1 for both the blank and sample groups were then measured at 340 nm (Thermo Fisher, Waltham, MA, USA). The sample group was then incubated at 37 °C for 30 min, and subsequently, the absorbance values were read again at 340 nm (a2, b2). […] The initial absorbance of the blank: a1-blank; b1-sample. a2: the absorbance values after incubation at 37 °C for 30 min. a2: blank; b2: samples.

Assay [2] deals with T1, Angiotensin I-converting enzyme (ACE). In words: In vitro simulated oral gastrointestinal digestion, ACE-inhibition read-out. Format: biochemical, rabbit. The settings on record: initially (before digestion), captopril as reference, Figure 5b. The protocol: ACE-inhibitory activity was assessed by following the experimental procedure reported by Dou et al., with slight modifications. A solution of borate-buffered HEPES (50 mM, pH 8.3) was dispensed into a 96-well plate, followed by the addition of samples (100 µL), ACE (50 µL, 0.1 U/mL, prepared from 50 mM borate buffer pH 8.3), and FAPGG(N-[3-(2-Furyl)acryloyl]-Phe-Gly-Gly) (50 µL, 1 mM) into each well. The negative control group was substituted with 100 µL of borate-buffered HEPES. The initial absorbance values of a1 and b1 for both the blank and sample groups were then measured at 340 nm (Thermo Fisher, Waltham, MA, USA). The sample group was then incubated at 37 °C for 30 min, and subsequently, the absorbance values were read again at 340 nm (a2, b2). (1) ACE inhibition rate=A−B/A×100% where A = a1 − a2, and B = b1 − b2. The initial absorbance of the blank: a1—blank; b1—sample. a2: the absorbance values after incubation at 37 °C for 30 min. a2: blank; b2: samples.
The in vitro digestion process was utilized. A quantity of 1 mg of the sample was dissolved in 1 mL of water and preheated in a water bath at 37 °C. Then, it was mixed with 1 mL of artificial saliva whose pH was adjusted to pH 6.8. The mixture was then agitated at 100 rpm for 1 min at 37 °C. Subsequently, the pH was adjusted to pH 2.0 using 1 M HCl and added in equal amounts to the simulated gastric digest. […]

Assay [3] concerns ACE. The settings on record: cited from earlier work. The protocol: According to the literature, ACE-inhibitory peptides with an IC50 between about 0.32 and 1000 μM have the potential to lower blood pressure. […] We therefore hypothesized that the peptides from FAGDDAPR, QGPIGPR, and GPTGPAGPR may have antihypertensive effects. […] Subsequently, peptides from the ribbonfish hydrolysates were isolated and identified through a combination of filtration and gel filtration chromatography techniques. […] Similarly, Dong et al. used alkaline protease to hydrolyze tilapi ...

The mark [4] stands for this setting: literature examples of antihypertensive peptides, the reference is not clearly printed, read-out: IC50.

As for FAGDDAPR [FAGDDAPR], the half-inhibitory concentration (IC50) in assay [1] worked out at 263 µM. Also, the “ACE-inhibitory activity lower than that of captopril” value in assay [2] was 31.17%.

On to FRVW, for which the IC50 in assay [3] (from Pinctada fucata, read-out: ACE-inhibitory IC50) is 18.3 µM. On to GPTGPAGPR [GPTGPAGPR], for which inhibition in assay [1] was half-maximal at 168 µM (IC50). With LEPWR, in assay [3] (from Pacific saury neutral protease hydrolysate, read-out: ACE-inhibitory IC50), the 50% inhibitory concentration (IC50) was 99.5 µM. In assay [1], QGPIGPR [QGPIGPR] registered an IC50 of 81.1 µM. Take VGINYW: the IC50 in assay [3] (setting [4]) is 15.1 µM. On to “VGLFPSRSF [literature oligopeptide from tilapia (Oreochromis niloticus) skin hydrolysate]”, for which, in assay [3] (from tilapia skin alkaline protease hydrolysate, read-out: ACE-inhibitory IC50), the half-inhibitory concentration (IC50) was 61.4 µM.

For WAGP, in assay [3] (setting [4]), the IC50 was 141 µM.
